Measurements from US5420339A, “Alpha-aryl or heteroaryl-substituted amide ester ACAT inhibitors” (Warner-Lambert Company, priority 1993, dated 1995).

What was measured:
[1] = APCC in vivo screen: blood cholesterol in rats on PCC diet with cholic acid; set-up: species or system male Sprague-Dawley rats; settings: single dosing at 4 PM, PCC diet overnight with 1% or 0.5% cholic acid, sacrificed 8 AM
Method: The compounds were also evaluated in an in vivo screen designated APCC whereby male Sprague-Dawley rats (200 to 225 g) were randomly divided into treatment groups and dosed at 4 PM with either vehicle (CMC/Tween) or suspensions of compounds in vehicle. The normal chow diet was then replaced with the PCC diet with either 1% or 0.5% cholic acid. The rats consumed this diet ad libitum during the night and were sacrificed at 8 AM to obtain blood samples for cholesterol analysis using standard procedures. Statistical differences between mean cholesterol values for the same vehicle were determined using analysis of variance followed by Fisher-s least significant test.
The data appear in Table II where they are expressed as % change.

[2] = in vivo adrenal toxicity screen in guinea pigs (Dominick et al.); set-up: species or system male guinea pigs of the Hartley strain; settings: 100 mg/kg daily gavage, 2 weeks; for toxicity class to the adrenal gland: oleic acid vehicle
Method: Male guinea pigs of the Hartley strain (450-500 g) were obtained from Charles River and randomly divided into treatment groups. They were fed standard guinea pig chow ad libitum and dosed daily (AM) by gavage (100 mg/kg). The test compounds were dissolved or suspended in an oleic acid vehicle to facilitate absorption. After 2 weeks the animals were sacrificed by CO2 asphyxiation in the nonfasted state 16 hours after the last dose. Adrenal glands were weighed, fixed in 10% formalin, processed by routine paraffin techniques, sectioned, and then stained with hematoxylin and eosin for light microscopy. Toxicity was defined by the incidence, severity, and complexity of adrenal histopathologic alterations in the zona fasciculata (e.g., adrenal cortical atrophy, increased coarse vacuolation, single-cell necrosis, inflammatory cell infiltrates, mineralization/ectopic bone formation, and increased cytoplasmic eosinophilia).

Row | SMILES | APCC % Change TC [1] [%] | also measured
1 | CCCCCCCCCCCCC(C)OC(=O)C(C(=O)Nc1c(OC)cc(OC)cc1OC)c1ccccc1 (racemic) [Example 17, (±)-Benzeneacetic acid, α-[[(2,4,6-trimethoxyphenyl)amino]carbonyl]-, 1-methyltridecyl ester] | -59 | 
2 | CCCCCCCCCCCCCCOC(=O)C(C(=O)Nc1c(C(C)C)cccc1C(C)C)c1ccccc1 (racemic) [Example 5, (±)-Benzeneacetic acid, α-[[[2,6-bis(1-methylethyl)phenyl]amino]carbonyl]-, tetradecyl ester] | -49 | 
3 | CCCCCC(C)OC(=O)C(C(=O)Nc1c(C(C)C)cccc1C(C)C)c1ccccc1 (racemic) [Example 7, (±)-Benzeneacetic acid, α-[[[2,6-bis(1-methylethyl)phenyl]amino]carbonyl]-, 1-methylhexyl ester] | -67 | 
4 | CCCCCCCOC(=O)C(C(=O)Nc1c(C(C)C)cccc1C(C)C)c1ccccc1 (racemic) [Example 8, (±)-Benzeneacetic acid, α-[[[2,6-bis(1-methylethyl)phenyl]amino]carbonyl]-, heptyl ester] | -71 | 
5 | CCCOC(=O)C(C(=O)Nc1c(C(C)C)cccc1C(C)C)c1ccccc1 (racemic) [Example 9, (±)-Benzeneacetic acid, α-[[[2,6-bis(1-methylethyl)phenyl]amino]carbonyl]-, propyl ester] | -20 | 
6 | CCCCCCCCCCCCC(C)OC(=O)CC(=O)Nc1c(C(C)C)cccc1C(C)C (racemic) [(±)3-[[2,6-bis(1-methylethyl)phenyl]amino]-3-oxo-propanoic acid, 1-methyltridecyl ester] |  | atrophy of the zona reticularis (incidence) [2]: two of six; cytotoxic zonal atrophy of the zona fasciculata (incidence) [2]: six of six; increased coarse vacuoles (incidence) [2]: two of six; inflammatory cell infiltrates (incidence) [2]: four of six; necrosis of the adrenal cortex (incidence) [2]: four of six; toxicity class to the adrenal gland [2]: highly toxic to the adrenal gland
7 | CCCCCCCCCCOC(=O)C(C(=O)Nc1c(C(C)C)cccc1C(C)C)c1ccccc1 (racemic) [Example 6, (±)-Benzeneacetic acid, α-[[[2,6-bis(1-methylethyl)phenyl]amino]carbonyl]-, decyl ester] | -58 | 
8 | CCCCCCCCCCC(C)OC(=O)C(C(=O)Nc1c(C(C)C)cccc1C(C)C)c1ccccc1 (racemic) [Example 4, (±)-Benzeneacetic acid, α-[[[2,6-bis(1-methylethyl)phenyl]amino]carbonyl]-, 1-methylundecyl ester] | -37 | 
9 | CCCCCCCCCCCCOC(=O)C(C(=O)Nc1c(C(C)C)cccc1C(C)C)c1ccccn1 (racemic) [Example 19, (±)-2-pyridineacetic acid, α-[[[2,6-bis(1-methylethyl)phenyl]amino]carbonyl]-, dodecyl ester] | -43 | 
10 | CCCCC(C)(C)OC(=O)C(C(=O)Nc1c(C(C)C)cccc1C(C)C)c1ccccc1 (racemic) [Example 15, (±)-Benzeneacetic acid, α-[[[2,6-bis(1-methylethyl)phenyl]amino]carbonyl]-, 1,1-dimethylpentyl ester] | -72 | 
11 | CCCCCCCCCCCCC(C)OC(=O)C(C(=O)Nc1c(C(C)C)cccc1C(C)C)c1ccccc1 (racemic) [Example 1, (±)-Benzeneacetic acid, α-[[[2,6-bis(1-methylethyl)phenyl]amino]carbonyl]-, 1-methyltridecylester] | -61 | increased coarse vacuoles (incidence) [2]: one of six; toxicity class to the adrenal gland [2]: nontoxic to the adrenal gland
12 | CCCCCCCCCCCCCCC(C)OC(=O)C(C(=O)Nc1c(C(C)C)cccc1C(C)C)c1ccccc1 (racemic) [Example 16, (±)-Benzeneacetic acid, α-[[[2,6-bis(1-methylethyl)phenyl]amino]carbonyl]-, 1-methylpentadecyl ester] | -37 | 
13 | CCCCCCCCCCCCCCCCOC(=O)C(C(=O)Nc1c(C(C)C)cccc1C(C)C)c1ccccc1 (racemic) [Example 13, (±)-Benzeneacetic acid, α-[[[2,6-bis(1-methylethyl)phenyl]amino]carbonyl]-, hexadecyl ester] | -26 | 
14 | CCCCCCCCCCCCOC(=O)C(C(=O)Nc1c(C(C)C)cccc1C(C)C)c1ccccc1 (racemic) [Example 3, (±)-Benzeneacetic acid, α-[[[2,6-bis(1-methylethyl)phenyl]amino]carbonyl]-, dodecyl ester] | -63 | increased coarse vacuoles (incidence) [2]: five of six; toxicity class to the adrenal gland [2]: nontoxic to the adrenal gland
15 | CCCCCCCCCOC(=O)C(C(=O)Nc1c(C(C)C)cccc1C(C)C)c1ccccc1 (racemic) [Example 11, (±)-Benzeneacetic acid, α-[[[2,6-bis(1-methylethyl)phenyl]amino]carbonyl]-, nonyl ester] | -67 | 
16 | CCCCCCCCCCCCCCCCCCOC(=O)C(C(=O)Nc1c(C(C)C)cccc1C(C)C)c1ccccc1 (racemic) [Example 14, (±)-Benzeneacetic acid, α-[[[2,6-bis(1-methylethyl)phenyl]amino]carbonyl]-, octadecyl ester] | -25 | 
17 | CCCCCCCCCCCCOC(=O)C(C(=O)Nc1c(OC)cc(OC)cc1OC)c1ccccc1 (racemic) [Example 18, (±) -Benzeneacetic acid, α-[[(2,4,6-trimethoxyphenyl)amino]carbonyl]-, dodecyl ester] | -51 | 
18 | CCCCCCCCOC(=O)C(C(=O)Nc1c(C(C)C)cccc1C(C)C)c1ccccc1 (racemic) [Example 10, (±)-Benzeneacetic acid, α-[[[2,6-bis(1-methylethyl)phenyl]amino]carbonyl]-, octyl ester] | -56 | 
19 | CCCCCCCCCCCCC(C)(C)OC(=O)C(C(=O)Nc1c(C(C)C)cccc1C(C)C)c1ccccc1 (racemic) [Example 12, (±)-Benzeneacetic acid, α-[[[2,6-bis(1-methylethyl)phenyl]amino]carbonyl]-, 1,1-dimethyltridecyl ester] | -26 | 
